# Measured values: US8198273B2, “Compounds and methods for kinase modulation, and indications therefor” (Plexxikon Inc., priority 2009, dated 2012)
# Assays:
# CYP2C9 = CYP2C9 (Homo sapiens, UniProt P11712); assay: CYP2C9 inhibition (fluorescent substrate); format: in vitro ADME; conditions: CYP2C9, MFC substrate; read-out: Cyp IC50 2C9
# Outline: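 10-pt 1:1 serial dilution in co-factor mix (DMSO stock 100 mM); 10 min preincubation, 37 °C; reaction at 37 °C. Readout: fluorescent metabolite of probe substrate. IC50 from signal vs [compound].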
# B-Raf = B-Raf (Homo sapiens, UniProt P15056); assay: B-Raf biochemical kinase inhibition (AlphaScreen, biotin-MEK1 substrate); conditions: 100 μM ATP
# Outline: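 Eight-point compound series (made from a 0.1 mM DMSO stock) tested against each Raf enzyme with biotin-MEK1 substrate and 100 μM final ATP.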
# CYP3A4(BQ) = CYP3A4(BQ) (Homo sapiens, UniProt P08684); assay: CYP3A4(BQ) inhibition (fluorescent substrate); format: in vitro ADME; conditions: read-out: Cyp IC50 3A4(BQ)
# Outline: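 Compound, from a 100 mM DMSO stock and diluted 1:1 over 10 points in co-factor mix, was incubated at 37° C with enzyme and a known substrate. Decrease in fluorescent product against concentration gave the IC50.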
# [1] = Relative solubility by turbidity in aqueous buffers of varying pH; format: physicochemical; conditions: for turbidity threshold (L, M, H) 7.4: HEPES pH 7.4; for turbidity threshold (L, M, H) 4.5: SIF pH 4.5; for turbidity threshold (L, M, H) 6.8: SIF pH 6.8; for turbidity threshold (L, M, H) 1.4: buffer pH 1.4 (SGF)
# Outline: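 Turbidity endpoint: concentration where optical density at 490, 535 and 650 nm exceeds 0.01, three-wavelength average used. Buffers at pH 1.5, 4.5, 6.8 and 7.4; DMSO serial dilutions of 25 mM stock spiked 1 μL into 99 μL buffer. Low <31.3, moderate 31.3–250, high >250 μM.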
# Sequence of CYP2C9 (P11712 whole entry): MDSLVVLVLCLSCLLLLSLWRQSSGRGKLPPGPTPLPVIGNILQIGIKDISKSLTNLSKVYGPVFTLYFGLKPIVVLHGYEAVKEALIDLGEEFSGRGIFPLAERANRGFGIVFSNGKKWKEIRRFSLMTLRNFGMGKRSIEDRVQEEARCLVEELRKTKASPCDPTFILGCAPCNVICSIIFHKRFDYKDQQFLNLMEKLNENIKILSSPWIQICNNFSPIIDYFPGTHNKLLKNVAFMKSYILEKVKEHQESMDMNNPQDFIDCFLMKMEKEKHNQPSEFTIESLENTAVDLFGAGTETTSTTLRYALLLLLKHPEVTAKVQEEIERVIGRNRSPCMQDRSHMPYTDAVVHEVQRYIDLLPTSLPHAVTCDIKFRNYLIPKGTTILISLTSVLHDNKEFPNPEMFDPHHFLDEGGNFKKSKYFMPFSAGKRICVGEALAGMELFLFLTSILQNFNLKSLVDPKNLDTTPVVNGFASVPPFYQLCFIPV
# Sequence of B-Raf (P15056 whole entry): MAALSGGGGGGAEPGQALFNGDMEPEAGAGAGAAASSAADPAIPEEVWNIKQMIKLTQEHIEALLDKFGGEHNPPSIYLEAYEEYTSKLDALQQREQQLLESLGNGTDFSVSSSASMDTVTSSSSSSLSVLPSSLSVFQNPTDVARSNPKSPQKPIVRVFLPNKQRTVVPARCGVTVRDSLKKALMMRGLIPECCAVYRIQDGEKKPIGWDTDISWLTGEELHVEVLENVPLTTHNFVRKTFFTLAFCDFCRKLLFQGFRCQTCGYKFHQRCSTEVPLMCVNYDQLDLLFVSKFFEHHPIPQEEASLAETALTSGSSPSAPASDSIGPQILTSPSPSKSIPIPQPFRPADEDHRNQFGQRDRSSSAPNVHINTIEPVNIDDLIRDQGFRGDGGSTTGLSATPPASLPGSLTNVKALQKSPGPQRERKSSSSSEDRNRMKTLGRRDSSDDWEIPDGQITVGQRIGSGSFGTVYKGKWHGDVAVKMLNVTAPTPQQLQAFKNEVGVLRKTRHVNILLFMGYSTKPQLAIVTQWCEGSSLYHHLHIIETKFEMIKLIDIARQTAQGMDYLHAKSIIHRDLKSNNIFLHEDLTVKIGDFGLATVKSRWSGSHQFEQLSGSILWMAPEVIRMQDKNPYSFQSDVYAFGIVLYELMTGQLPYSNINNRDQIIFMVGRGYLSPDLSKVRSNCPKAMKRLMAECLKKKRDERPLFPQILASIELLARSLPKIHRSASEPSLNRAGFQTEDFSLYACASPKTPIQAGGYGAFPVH
# Sequence of CYP3A4(BQ) (P08684 whole entry): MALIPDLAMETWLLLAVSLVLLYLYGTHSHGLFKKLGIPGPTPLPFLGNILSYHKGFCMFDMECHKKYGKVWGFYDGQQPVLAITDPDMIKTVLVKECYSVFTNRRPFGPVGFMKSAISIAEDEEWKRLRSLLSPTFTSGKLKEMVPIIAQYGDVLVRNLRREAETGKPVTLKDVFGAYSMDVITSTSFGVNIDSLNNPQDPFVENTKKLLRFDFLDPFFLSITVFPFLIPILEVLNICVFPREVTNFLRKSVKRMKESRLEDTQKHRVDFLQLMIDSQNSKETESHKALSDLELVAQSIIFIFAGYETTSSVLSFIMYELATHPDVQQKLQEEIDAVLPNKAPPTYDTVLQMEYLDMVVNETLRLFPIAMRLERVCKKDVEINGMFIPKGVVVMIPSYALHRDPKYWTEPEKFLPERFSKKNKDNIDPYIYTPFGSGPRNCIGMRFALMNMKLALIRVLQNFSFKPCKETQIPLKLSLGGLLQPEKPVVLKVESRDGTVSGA
Structure (SMILES),IC50 (CYP2C9),IC50 (B-Raf),IC50 (CYP3A4(BQ)),"turbidity threshold (L, M, H) 7.4 [1]","turbidity threshold (L, M, H) 4.5 [1]","turbidity threshold (L, M, H) 6.8 [1]","turbidity threshold (L, M, H) 1.4 [1]"
"CCCS(=O)(=O)Nc1ccc(F)c(C(=O)c2c[nH]c3ncc(-c4cnc(C)nc4)cc23)c1F [P-2211, Propane-1-sulfonic acid {2,4-difluoro-3-[5-(2-methyl-pyrimidin-5-yl)-1H-pyrrolo[2,3-b]pyridine-3-carbonyl]-phenyl}-amide]",> 10 µM,< 0.01 µM,> 10 µM,M (moderate solubility if the threshold concentration is 31.3 μM to 250 μM),M (moderate solubility if the threshold concentration is 31.3 μM to 250 μM),M (moderate solubility if the threshold concentration is 31.3 μM to 250 μM),M (moderate solubility if the threshold concentration is 31.3 μM to 250 μM)
"CCCS(=O)(=O)Nc1ccc(F)c(C(=O)c2c[nH]c3ncc(-c4ccc(C)nc4)cc23)c1F [P-2213, Propane-1-sulfonic acid {2,4-difluoro-3-[5-(6-methyl-pyridin-3-yl)-1H-pyrrolo[2,3-b]pyridine-3-carbonyl]-phenyl}-amide]",< 5 µM,< 0.01 µM,> 10 µM,L (low solubility if the threshold concentration is <31.3 04),M (moderate solubility if the threshold concentration is 31.3 μM to 250 μM),L (low solubility if the threshold concentration is <31.3 04),H (high solubility if the threshold concentration is >250 μM)
"CCCS(=O)(=O)Nc1ccc(F)c(C(=O)c2c[nH]c3ncc(-c4ccc(C#CCN(CC)CC)nc4)cc23)c1F [P-2222, Propane-1-sulfonic acid (3-{5-[6-(3-diethylamino-prop-1-ynyl)-pyridin-3-yl]-1H-pyrrolo[2,3-b]pyridine-3-carbonyl}-2,4-difluoro-phenyl)-amide]",5 to 10 µM,< 0.01 µM,5 to 10 µM,L (low solubility if the threshold concentration is <31.3 04),L (low solubility if the threshold concentration is <31.3 04),L (low solubility if the threshold concentration is <31.3 04),L (low solubility if the threshold concentration is <31.3 04)
"CCCS(=O)(=O)Nc1ccc(F)c(C(=O)c2c[nH]c3ncc(-c4ccc(CCCOC)nc4)cc23)c1F [P-2226, Propane-1-sulfonic acid (2,4-difluoro-3-{5-[6-(3-methoxy-propyl)-pyridin-3-yl]-1H-pyrrolo[2,3-b]pyridine-3-carbonyl}-phenyl)-amide]",< 5 µM,< 0.01 µM,> 10 µM,L (low solubility if the threshold concentration is <31.3 04),L (low solubility if the threshold concentration is <31.3 04),L (low solubility if the threshold concentration is <31.3 04),H (high solubility if the threshold concentration is >250 μM)
"CCCS(=O)(=O)Nc1ccc(F)c(C(=O)c2c[nH]c3ncc(-c4ccc(N5CCCC5)nc4)cc23)c1F [P-2231, Propane-1-sulfonic acid {2,4-difluoro-3-[5-(6-pyrrolidin-1-yl-pyridin-3-yl)-1H-pyrrolo[2,3-b]pyridine-3-carbonyl]-phenyl}-amide]",5 to 10 µM,< 0.01 µM,> 10 µM,L (low solubility if the threshold concentration is <31.3 04),L (low solubility if the threshold concentration is <31.3 04),L (low solubility if the threshold concentration is <31.3 04),L (low solubility if the threshold concentration is <31.3 04)
"CCCS(=O)(=O)Nc1ccc(F)c(C(=O)c2c[nH]c3ncc(-c4ccc(OCCN5CCOCC5)nc4)cc23)c1F [P-2232, Propane-1-sulfonic acid (2,4-difluoro-3-{5-[6-(2-morpholin-4-yl-ethoxy)-pyridin-3-yl]-1H-pyrrolo[2,3-b]pyridine-3-carbonyl}-phenyl)-amide]",5 to 10 µM,< 0.01 µM,> 10 µM,L (low solubility if the threshold concentration is <31.3 04),M (moderate solubility if the threshold concentration is 31.3 μM to 250 μM),L (low solubility if the threshold concentration is <31.3 04),M (moderate solubility if the threshold concentration is 31.3 μM to 250 μM)
"CCCS(=O)(=O)Nc1ccc(F)c(C(=O)c2c[nH]c3ncc(-c4ccc(OCCN5CCCC5)nc4)cc23)c1F [P-2233, Propane-1-sulfonic acid (2,4-difluoro-3-{5-[6-(2-pyrrolidin-1-yl-ethoxy)-pyridin-3-yl]-1H-pyrrolo[2,3-b]pyridine-3-carbonyl}-phenyl)-amide]",> 10 µM,< 0.01 µM,> 10 µM,M (moderate solubility if the threshold concentration is 31.3 μM to 250 μM),M (moderate solubility if the threshold concentration is 31.3 μM to 250 μM),L (low solubility if the threshold concentration is <31.3 04),L (low solubility if the threshold concentration is <31.3 04)
"CCCS(=O)(=O)Nc1ccc(F)c(C(=O)c2c[nH]c3ncc(-c4ccc(OCCCN5CCCC5)nc4)cc23)c1F [P-2235, Propane-1-sulfonic acid (2,4-difluoro-3-{5-[6-(3-pyrrolidin-1-yl-propoxy)-pyridin-3-yl]-1H-pyrrolo[2,3-b]pyridine-3-carbonyl}-phenyl)-amide]",> 10 µM,< 0.01 µM,> 10 µM,L (low solubility if the threshold concentration is <31.3 04),M (moderate solubility if the threshold concentration is 31.3 μM to 250 μM),L (low solubility if the threshold concentration is <31.3 04),L (low solubility if the threshold concentration is <31.3 04)
"CCCS(=O)(=O)Nc1ccc(F)c(C(=O)c2c[nH]c3ncc(-c4ccc(OCCCN5CCOCC5)nc4)cc23)c1F [P-2236, Propane-1-sulfonic acid (2,4-difluoro-3-{5-[6-(3-morpholin-4-yl-propoxy)-pyridin-3-yl]-1H-pyrrolo[2,3-b]pyridine-3-carbonyl}-phenyl)-amide]",< 5 µM,< 0.01 µM,5 to 10 µM,L (low solubility if the threshold concentration is <31.3 04),M (moderate solubility if the threshold concentration is 31.3 μM to 250 μM),L (low solubility if the threshold concentration is <31.3 04),M (moderate solubility if the threshold concentration is 31.3 μM to 250 μM)
